According to the supplement of paper PMC6045584:
± gives the standard deviation of the averaged measurements.

What was measured:
[1] = compound: CC(=O)c1c(C)c2cnc(Nc3ccc(N4CCNCC4)cn3)nc2n(C2CCCC2)c1=O; test: surviving fraction relative to DMSO-only wells; higher = less growth inhibition; conditions: exposure time: 5 days
How it was run: (§1)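 Luminescence normalised to the median of DMSO-only wells defines surviving fraction, with viability read by CellTiter-Glo. Signal was recorded after 10 minutes at room temperature, once log-phase tumour cell lines seeded at 250–500 cells per well in 384-well plates had spent 24 hours settling and then five days under continuous exposure to inhibitors at 0.5, 1, 5, 10, 50, 100, 500 and 1000 nM.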

[2] = compound: COc1cc2ncnc(Nc3ccc(F)c(Cl)c3)c2cc1OCCCN1CCOCC1 [GEFITINIB]; test: as above; conditions: exposure time: 5 days
How it was run: as §1

| Test System | surviving fraction ([1]; 0.5 nM) | surviving fraction ([1]; 1 nM) | surviving fraction ([1]; 5 nM) | surviving fraction ([1]; 10 nM) | surviving fraction ([1]; 50 nM) | surviving fraction ([1]; 100 nM) | surviving fraction ([1]; 500 nM) | surviving fraction ([1]; 1000 nM) | surviving fraction ([2]; 0.5 nM) | surviving fraction ([2]; 1 nM) | surviving fraction ([2]; 5 nM) | surviving fraction ([2]; 10 nM) | surviving fraction ([2]; 50 nM) | surviving fraction ([2]; 100 nM) | surviving fraction ([2]; 500 nM) | surviving fraction ([2]; 1000 nM) |
| --- | --- | --- | --- | --- | --- | --- | --- | --- | --- | --- | --- | --- | --- | --- | --- | --- |
| ZR751 BREAST | 1.07 ± 0.19 | 1.07 ± 0.057 | 0.923 ± 0.2 | 0.953 ± 0.15 | 1.13 ± 0.059 | 1.04 ± 0.11 | 1.23 ± 0.12 | 1.01 ± 0.054 | 1.22 ± 0.054 | 1 ± 0.1 | 1.13 ± 0.067 | 0.983 ± 0.046 | 0.901 ± 0.071 | 0.994 ± 0.035 | 0.734 ± 0.034 | 0.802 ± 0.12 |
| JURKAT HAEMATOPOIETIC AND LYMPHOID TISSUE | 1.09 ± 0.017 | 1.11 ± 0.021 | 1.0573 ± 0.00058 | 1.07 ± 0.033 | 1.03 ± 0.034 | 1.05 ± 0.013 | 0.847 ± 0.032 | 0.793 ± 0.018 | 1.07 ± 0.016 | 1.09 ± 0.041 | 1.062 ± 0.0078 | 1.07 ± 0.021 | 1.05 ± 0.028 | 1.03 ± 0.025 | 1.02 ± 0.018 | 1.016 ± 0.0051 |
| CADOES1 SOFT TISSUE | 0.962 ± 0.048 | 0.897 ± 0.11 | 0.821 ± 0.078 | 0.883 ± 0.13 | 0.83 ± 0.053 | 0.921 ± 0.039 | 0.726 ± 0.011 | 0.704 ± 0.048 | 1.01 ± 0.045 | 0.9 ± 0.058 | 0.852 ± 0.063 | 0.906 ± 0.13 | 0.824 ± 0.12 | 0.942 ± 0.11 | 0.953 ± 0.12 | 0.995 ± 0.16 |
